{"source": "patent US7700644B2", "about": "“Isoflavonoid dimers” (Novogen Research Pty Ltd, priority 2005, dated 2010)", "key": {"[1]": {"system": "ovarian cancer cell line CP70", "experiment": "In vitro cytotoxicity, MTT proliferation assay, CP70", "format": "cell-based, human", "conditions": "Homo sapiens", "procedure": "(§1) The human pancreatic cancer cell line, HPAC (CRL-2119) was routinely cultured in 1:1 mixture DMEM (Sigma) plus Ham's F12 (Sigma) medium containing HEPES (15 mM), insulin (0.002 mg/ml), transferrin (0.005 mg/ml), hydrocortisone, (40 ng/ml), epidermal growth factor (10 ng/ml). The ovarian cancer cell line CP70 was obtained as a gift from Dr. Gil Mor (Yale University) and cultured in a 1:1 mixture DMEM plus Ham's F12 medium, and SKOV-3 was purchased from ATCC and cultured in McCoy's 5a medium. The breast cancer cell line MDA-MB-468 cultured in Leibovitz's L-15 medium.\n(§2) All cultures were supplemented with 10% FCS(CSL, Australia), penicillin (100 U/ml), streptomycin ([…]), L-glutamine (2 mM) and sodium bicarbonate (1.2 g/L), and cultured at 37° C. in a humidified atmosphere of 5% CO2. All remaining cell lines were purchased from ATCC (Maryland, USA) except where noted.\n(§3) IC50 values were determined for each cell line. Cells were seeded in 96-well plates at an appropriate cell density as determined from growth kinetics analysis. NFFs were cultured for 5 days and RK-13s for 24 hrs in the absence and presence of the test compounds. Cell proliferation was assessed after the addition of 20 μl of 3-4,5 dimethylthiazol-2,5-diphenyl tetrazolium bromide (MTT, 2.5 mg/ml in PBS, Sigma) for 3-4 hrs at 37° C. according to manufacturer's instructions. IC50 values were calculated from semi-log plots of % of control proliferation on the y-axis against log dose on the x-axis."}, "DU145 (Prostate)": {"system": "DU145 (Prostate)", "experiment": "In vitro cytotoxicity, MTT proliferation assay, DU145", "format": "cell-based, human", "conditions": "Homo sapiens, DU-145", "procedure": "as §1, §2, §3"}, "PGE2 synthesis": {"system": "PGE2 synthesis", "experiment": "PGE2 synthesis in human monocytes incubated with LPS", "format": "cell-based", "conditions": "LPS 200 ng/mL, 18 hrs, dose responsive", "procedure": "Human peripheral blood monocytes (from three separate individuals) were isolated from buffy coats by lymphoprep gradient separation of mononuclear cells followed by counter-current centrifugal elutriation (Demasi et al. 2000). The test compounds were dissolved in DMSO and added to fresh monocytes After 30 min, LPS was added to achieve a final concentration of 200 ng/mL. After incubation for 18 hrs at 37° C. in 5% CO2, supernatants were removed and PGE2, TXB2 (the stable hydrolysis product of TXA2) and TNFα production were measured by radioimmunoassay (RIA)."}, "splenocytes": {"system": "splenocytes", "experiment": "Murine splenocyte proliferation with mitogens (MTT), 3 day incubation with compound", "format": "cell-based, Male Skh-1 (hairless) mice", "procedure": "Male Skh-1 (hairless) mice, six weeks old were killed by cervical dislocation. Single cell suspensions were made from their spleens and erythrocytes were lysed in buffer (0.14M NH4Cl, 17 mM Tris, pH 7.2). The remaining splenocytes were cultured in RPMI-1640 (Gibco) supplemented with 10% (v:v) FBS, 200 mM L-glutamine, penicillin/streptomycin and […] 2-mercaptoethanol. […] Samples were analysed after a 3 day incubation at 37° C. in 5% CO2 in air. To assess cell numbers, methylthiazoletetrazolium (MTT) was added to each well, incubated for a further 4 hrs and then colour developed with 0.04N HCl in isopropanol (Mosmann 1983). Plates were read at 570 nm and 630 nm. The compounds were examined several times using different mice. For each assay, the effect of test compound was compared with that of vehicle control, and the results compared using a student's t test (Prism). Statistically significant difference was determined to have occurred when p<0.05."}, "LNCaP (Prostate)": {"system": "LNCaP (Prostate)", "experiment": "In vitro cytotoxicity, MTT proliferation assay, LNCaP", "format": "cell-based, human", "conditions": "Homo sapiens", "procedure": "as §1, §2, §3"}, "unstimulated splenocytes": {"system": "unstimulated splenocytes", "experiment": "Murine splenocytes, 24 hour pre-incubation with compound then mitogenic stimulation", "format": "cell-based, Male Skh-1 (hairless) mice", "conditions": "10 μM", "procedure": "Male Skh-1 (hairless) mice, six weeks old were killed by cervical dislocation. Single cell suspensions were made from their spleens and erythrocytes were lysed in buffer (0.14M NH4Cl, 17 mM Tris, pH 7.2). The remaining splenocytes were cultured in RPMI-1640 (Gibco) supplemented with 10% (v:v) FBS, 200 mM L-glutamine, penicillin/streptomycin and […] 2-mercaptoethanol. Splenocytes were added to triplicate wells containing either concanavalin A (ConA, Sigma-Aldrich—0.4 μg/well), lipopolysaccharide (LPS, Sigma-Aldrich—1 μg/well) or no mitogen, as well as 10 μM of either Compound 1 or Compound 2 in DMSO, or DMSO alone. Samples were analysed after a 3 day incubation at 37° C. in 5% CO2 in air. To assess cell numbers, methylthiazoletetrazolium (MTT) was added to each well, incubated for a further 4 hrs and then colour developed with 0.04N HCl in isopropanol (Mosmann 1983). Plates were read at 570 nm and 630 nm. The compounds were examined several times using different mice. For each assay, the effect of test compound was compared with that of vehicle control, and the results compared using a student's t test (Prism). Statistically significant difference was determined to have occurred when p<0.05.\nAnother assay examined the effect pre-incubating unstimulated splenocytes with test compounds at 10 μM for 24 hours, removing the compounds and then assessing their ability to respond to mitogenic stimulation as described for the previous assay. Cell numbers were assessed after the 24 hr pre-incubation using MTT, and equal numbers of cells/well plated into 96 well plates as usual."}, "SKOV-3 (Ovarian)": {"system": "SKOV-3 (Ovarian)", "experiment": "In vitro cytotoxicity, MTT proliferation assay, SKOV-3", "format": "cell-based, human", "conditions": "Homo sapiens, SK-OV-3; Ovarian SKOV-3", "procedure": "as §1, §2, §3"}, "[2]": {"system": "human pancreatic cancer cell line, HPAC (CRL-2119)", "experiment": "In vitro cytotoxicity, MTT proliferation assay, CRL-2119", "format": "cell-based", "conditions": "Homo sapiens, HPAC; Pancreatic CRL-2119", "procedure": "as §1, §2, §3"}, "HT-29 (Colorectal)": {"system": "HT-29 (Colorectal)", "experiment": "In vitro cytotoxicity, MTT proliferation assay, HT-29", "format": "cell-based, human", "conditions": "Homo sapiens; Colorectal HT-29", "procedure": "as §1, §2, §3"}, "HCT-15 (Colorectal)": {"system": "HCT-15 (Colorectal)", "experiment": "In vitro cytotoxicity, MTT proliferation assay, HCT-15", "format": "cell-based, human", "conditions": "Homo sapiens; Colorectal HCT-15", "procedure": "as §1, §2, §3"}, "HTB-138 (Glioma)": {"system": "HTB-138 (Glioma)", "experiment": "In vitro cytotoxicity, MTT proliferation assay, HTB-138", "format": "cell-based, human", "conditions": "Homo sapiens; Glioma HTB-138", "procedure": "as §1, §2, §3"}}, "data": [{"smiles": "COc1ccc(C23COc4c(ccc(O)c4C)C2C2c4ccc(O)c(C)c4OCC2c2cc(OC)c(OC)cc23)cc1OC", "note": "(centres unmarked) [Cpd. 2, 4,9-Dihydroxy-14,15-dimethoxy-12a-(3′,4′-dimethoxyphenyl)-3,10-dimethyl-2,11-dioxa-(1H,12H)-6b,6c,12a,16b-tetrahydronaphtho[1,2-g]chrysene]", "values": [{"measurement": "IC50", "setting": "[1]", "value": "8.23 ± 3.73", "unit": "µM"}, {"measurement": "IC50", "setting": "DU145 (Prostate)", "value": "8.84 ± 0.47", "unit": "µM"}, {"measurement": "effect on PGE2 synthesis", "setting": "PGE2 synthesis", "value": "induced"}, {"measurement": "effect on splenocyte proliferation", "setting": "splenocytes; 10 μM, four different assays", "value": "no consistent trend"}, {"measurement": "proliferation compared with vehicle control", "setting": "splenocytes; higher concentrations (than 10 μM), regardless of mitogenic stimulation", "value": "reduced proliferation"}, {"measurement": "IC50", "setting": "LNCaP (Prostate)", "value": "12 ± 4.3", "unit": "µM"}, {"measurement": "Splenocyte viability following three days' culture in the absence of mitogen", "setting": "unstimulated splenocytes", "value": "significantly reduced"}, {"measurement": "reduction in cell numbers compared with vehicle alone", "setting": "unstimulated splenocytes", "value": 55, "unit": "%"}, {"measurement": "proliferative response to ConA after pre-incubation", "setting": "unstimulated splenocytes; compound removed", "value": "significantly less"}, {"measurement": "IC50", "setting": "SKOV-3 (Ovarian)", "value": "16.7 ± 10", "unit": "µM"}, {"measurement": "IC50", "setting": "[2]", "value": "11.2 ± 4.7", "unit": "µM"}, {"measurement": "IC50", "setting": "HT-29 (Colorectal)", "value": "11.5 ± 6", "unit": "µM"}, {"measurement": "IC50", "setting": "HCT-15 (Colorectal)", "value": "54.7 ± 28", "unit": "µM"}, {"measurement": "IC50", "setting": "HTB-138 (Glioma)", "value": 16.4, "unit": "µM"}]}]}
